The record followed here is patent publication US20120115869A1, “TETRAZOLE DERIVATIVES” (MERCK SERONO S.A., priority 2009, published 2012).

For one series, the target named is T1, CRTH2 (DP2) (Homo sapiens, UniProt Q9Y5Y4).
T1 construct: host or cells: CHO cells
T1 sequence (Q9Y5Y4 1-395): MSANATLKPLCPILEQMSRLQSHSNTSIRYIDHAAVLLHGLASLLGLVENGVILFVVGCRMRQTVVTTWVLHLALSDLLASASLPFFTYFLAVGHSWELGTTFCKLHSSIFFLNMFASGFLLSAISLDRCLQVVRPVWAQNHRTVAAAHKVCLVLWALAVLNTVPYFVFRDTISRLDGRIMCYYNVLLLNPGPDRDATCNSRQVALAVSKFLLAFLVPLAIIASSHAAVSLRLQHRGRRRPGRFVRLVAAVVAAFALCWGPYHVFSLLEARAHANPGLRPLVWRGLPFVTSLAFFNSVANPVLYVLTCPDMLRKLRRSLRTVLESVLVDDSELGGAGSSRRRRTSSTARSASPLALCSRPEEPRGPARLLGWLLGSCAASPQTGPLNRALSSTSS
Put plainly: Radioligand binding Scintillation Proximity Assay ([3H]PGD2, hCRTH2-CHO cell membranes). Conditions: 1.5 nM [3H]PGD2, hCRTH2-CHO cell membranes, SPA. The essentials:
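Membranes from CHO cells stably expressing human CRTH2, made by nitrogen cavitation and differential centrifugation. Compounds competed with [3H]PGD2 at 1% DMSO for 90 min with agitation at room temperature. Non-specific binding taken with 10 μM PGD2.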

The subject of series [1] is eosinophils (PGD2-induced cell shape change). Put plainly: PGD2-induced eosinophil cell shape assay in human whole blood. Conditions: 10 nM PGD2 final. It counts as cell-based. On the procedure:
The Compounds of Formula (I) were diluted in dimethylsulphoxide so that the total volume of dimethylsulfoxide was kept constant at 2% dimethylsulphoxide (Me2SO). Serial dilutions of 200 μM to 0.09 μM were prepared. Samples of 90 μl of human blood from healthy volunteers (Centre de Transfusion Sanguine de Genéve) were pre-incubated in polypropylene Falcon tubes (BD 352063) for 20 minutes in a water bath at 37° C. with 10 μl of diluted compounds. For CRTH2 activation, 100 μl PGD2 (Cayman 12010) at 20 nM was added (10 nM final) to each tube and cells were maintained at 37° C. For negative control cells were treated with PBS. After 10 minutes, cell activation was stopped with 120 μl Formaldehyde 10% (4% final, Fluka 41650) and cells were rested for 10 minutes at room temperature. Fixed cells were transferred into polypropylene tubes and then treated for 1 hour in a water bath at 37° C. with 2 ml of Triton-Surfact-Amps X-100 (Pierce 28314) at 0.166% (0.13% Triton final). After several washes with PBS (red cells lysed progressively during washes, two washes are necessary), cells were analyzed by flow cytometry on a FACSCalibur. In one embodiment, the compounds of Formula (I) of the present invention are capable of blocking the cell shape change of eosinophils induced by PGD2 in Whole Blood.

Series [2] has as its target T2, CRTH2 (Homo sapiens, UniProt Q9Y5Y4).
T2 construct: expressed in transfected cells; host or cells: CHO cells
T2 sequence (Q9Y5Y4 1-395): T1 sequence (Q9Y5Y4 1-395)
Description: [35S]GTPγS binding assay on CHO-CRTH2 cell membranes. Format: biochemical. Conditions: without addition of PGD2; 100% of Emax being the activity measured by the addition of 1 μM of PGD2. Here is the method:
Adherent CHO cells expressing hCRTH2 (Euroscreen, Belgium) were cultured in 225 cm^2 cell culture flasks (Corning, USA) in 30 ml of medium. After two rinses of phosphate buffered saline (PBS), cells were harvested in 10 ml of PBS containing 1 mM EDTA, centrifuged at 500×g for 5 min at 4° C. and frozen at −80° C. The pellet was re-suspended in 50 mM Tris-HCl, pH 7.4, 2 mM EDTA, 250 mM Sucrose, containing protease inhibitor cocktail tablets, (Complete EDTA-free, Roche, Germany) and incubated 30 min at 4° C. Cells were disrupted by nitrogen cavitation (Parr Instruments, USA) at 4° C. (800 p.s.i. for 30 min), and centrifuged at 500×g for 10 min at 4° C. Pellet containing nuclei and cellular debris was discarded and supernatant was centrifuged 60 min at 4° C. at 45000×g. Membrane pellet was re-suspended in storage buffer (10 mM HEPES/KOH pH 7.4, 1 mM EDTA, 250 mM sucrose, protease inhibitor cocktail tablets) using Dounce homogenization and frozen in liquid nitrogen, and stored at 80° C.
The [^35S]GTPγS assay measures the increase in guanine nucleotide exchange at G-proteins in cell membranes, resulting from agonist (PGD2) binding to CRTH2. […] Briefly, Compounds of Formula (I) are incubated in 96-well scintillating white polystyrene plates (Perkin Elmer, USA) in a final volume of 200 μl containing 20 mM HEPES/KOH pH 7.4, 3 mM MgCl2, 10 μg/ml Saponin, 5 μM GDP, 75 mM NaCl and 2% of dimethylsulphoxide (DMSO). […] After 60 min incubation at 30° C., reaction is stopped by centrifugation at 700×g, at 4° C. for 10 minutes and supernatant is removed. […] For IC50 determination, increasing concentrations of compounds are incubated in presence of a fixed concentration of PGD2 (EC80). For EC50 measurements, compounds are incubated without addition of PGD2. Basal [^35S]GTPγS activity is determined without addition of any ligands or compounds. 100% [^35S]GTPγS activity is measured by the addition of 1 μM of PGD2.

Series [3] addresses T2, CRTH2. Description: Cellular Dielectric Spectroscopy in CHO-CRTH2 cells. Conditions: for IC50: fixed concentration of PGD2 (EC80), read-out: IC50(μM) (CDS, antagonist). Format: cell-based. Here is the method: Cellular Dielectric Spectroscopy (CDS) is a label-free technology based on the measurement of complex impedance changes (delta Z or dZ). Impedance (Z) is related to the ratio of voltage to current as described by Ohm's law (Z=V/I). In order to measure the changes in impedance that occur in response to receptor stimulation, mammalian cells are seeded onto a custom 96-well microtiter plate that contains electrodes at the bottom of each well Key contributors to the impedance measurements are changes in cell-substrate adherence, changes in cell shape and volume, and changes in cell-cell interactions. These factors individually or collectively affect the flow of current, influencing the magnitude and characteristics of the signal measured. G-protein coupled receptors ligand-induced activity can be measured using this technology and specific G protein coupling can be identified. Activities of reference agonist and antagonist molecules of CRTH2 have been measured using this assay and similar results were obtained compared to different functional assays.
CHO—CRTH2 cells are cultured in HAM's F12 (Lonza, Switzerland) supplemented with 10% foetal calf serum (PAA, Australia) and 400 μg/ml Geneticin. 100000 cells/well are seeded in standard 96 W Microplates (MDS Analytical Technologies) and incubated at 37° C. in 5% CO2 for 24 hours. Cells are washed twice with 135 μl of cell key buffer (Hank's Balanced Salt Solution 1× (HBSS) (Invitrogen) supplemented with 10 mM HEPES pH 7.4 in presence of 1% DMSO). […] Results are expressed as the amplitude between the highest and the lowest signal produced (max-min). Basal and maximum activities are measured, respectively in absence or presence of PGD2 (EC80).

A short description of series [4]: In vivo pharmacokinetic evaluation in mouse. Conditions: female, C57BL/6, mouse, plasma, mice. Here is the method: In order to study the pharmacokinetic (PK) profile of test compounds in vivo, Sprague Dawley male rats or C57BL/6 female mice were dosed intravenously or after oral gavage. For both species, test compounds were dosed in solution at 1 mg/kg for i.v. route (10% ethanol, 10% N,N-dimethylacetamide, 30% propylene glycol, 50% water, v/v) and in suspension at 5 mg/kg (0.5% carboxymethylcellulose suspension, containing 0.25% Tween 20 in water) for oral gavage. PK profile in rat was obtained from 3 animals per dosing route and mouse PK profile was determined from 3 animals for each time points. The volume of administration was 2 mL/kg for i.v. dosing in both species and either 5 mL/kg (rat) or 10 mL/kg (mouse) for oral gavage. Blood samples (100 μL/time point) were collected at 0.083 (5 min), 0.25, 0.5, 1, 4, 7 and 24 hours post-dose for i.v. dosing, and at 0.5, 1, 4, 7 and 24 h for oral dosing, into heparin-Li+ containing tubes. For rats, all blood samples were collected trough a catheter in the carotid artery (placed in the artery the day before the experiment), under light isoflurane anesthesia, and stored on ice until centrifugation and plasma isolation. For mouse, blood samples were collected from intracardiac puncture at sacrifice at each time point and processed as described above for the rat. Plasma samples were stored frozen until analysis (−20° C. to −70° C.). For bioanalysis, samples were processed by protein precipitation (acetonitrile, formic acid 0.1%, addition of 3 volumes) after addition of one internal standard and analysed using a sensitive and selective LC/MS/MS method. An aliquot of the resulting supernatant was subject to LC/MS/MS analysis using a reverse phase column (Waters Xterra, C8, (3.5 μm particle size, 2.1×50 mm) and a short gradient (1 min) from (Solvent A) 85% water, 15% acetonitrile and 0.1% formic acid to (Solvent B) 90% acetonitrile, 10% water and 0.1% formic acid followed by isocratic conditions of Solvent B for 3.5 min at 0.4 mL/min. Column effluent was monitored using a Sciex API 4000 triple quadrupole mass spectrometer with a Turbo V electrospray ion source. Unknown concentrations of test compounds were determined using a calibration curve ranging from 1 to 3000 ng/mL.

Take `CCCCC(=O)N(Cc1cccc(OC)c1)c1cccc(-c2nnn[nH]2)c1` [Example 13, N-(3-methoxybenzyl)-N-[3-(1H-tetrazol-5-yl)phenyl]pentanamide]: the IC50 was 53 nM at CRTH2 (DP2) and 0.914 µM in series [1].

Molecule `COCCC(=O)N(Cc1ccc(OC(F)(F)F)cc1)c1cc(Cl)cc(-c2nnn[nH]2)c1` [Example 68, N-[3-chloro-5-(1H-tetrazol-5-yl)phenyl]-3-methoxy-N-[4-(trifluoromethoxy)benzyl]propanamide] showed a melting point of 146 to 151 °C. In addition, at CRTH2 (DP2), the IC50 is 7.4 nM.

In turn, `CCC(=O)N(Cc1cccc(-c2ccccc2)c1)c1cccc(-c2nnn[nH]2)c1` [Example 59, N-(biphenyl-3-ylmethyl)-N-[3-(1H-tetrazol-5-yl)phenyl]propanamide] showed a melting point of 91 °C. At CRTH2 (DP2), this molecule came in with an IC50 of 230 nM.

On to `CCCCC(=O)N(Cc1ccc(OC(F)(F)F)c(Cl)c1)c1cc(F)cc(-c2nnn[nH]2)c1` [Example 54, N-[3-chloro-4-(trifluoromethoxy)benzyl]-N-[3-fluoro-5-(1H-tetrazol-5-yl)phenyl]pentanamide], for which the melting point was 137 °C. Further, at CRTH2 (DP2), the IC50 stood at 15 nM. At CRTH2 [2], the Emax was -12.6%.

`CCCCC(=O)N(Cc1ccc(OC(F)(F)F)cc1)c1cc(Cl)cc(-c2nnn[nH]2)c1` [Example 40, N-[3-chloro-5-(1H-tetrazol-5-yl)phenyl]-N-[4-(trifluoromethoxy)benzyl]pentanamide] gave a melting point of 177 to 180 °C. In addition, at CRTH2 (DP2), the IC50 turned out to be 25 nM. Besides, the Emax at CRTH2 [2] is -9.9%.

As to `CCCC(=O)N(Cc1ccc(OC(F)(F)F)cc1)c1cc(Cl)cc(-c2nnn[nH]2)c1` [Example 55, N-[3-chloro-5-(1H-tetrazol-5-yl)phenyl]-N-[4-(trifluoromethoxy)benzyl]butanamide], the melting point amounted to 179 °C. For the same molecule, on CRTH2 (DP2), the IC50 was 16 nM. Besides, the Emax at CRTH2 [2] is -13.5%.

In turn, `CCCCC(=O)N(Cc1cccc(OC)c1)c1cc(F)cc(-c2nnn[nH]2)c1` [Example 37, N-[3-fluoro-5-(1H-tetrazol-5-yl)phenyl]-N-(3-methoxybenzyl)pentanamide] gave a melting point of 118 to 120 °C. Besides, on CRTH2 (DP2), the IC50 was 3.6 nM.

In the case of `CCC(=O)N(Cc1ccc(OC)cc1)c1cc(F)cc(-c2nnn[nH]2)c1` [Example 41, N-[3-fluoro-5-(1H-tetrazol-5-yl)phenyl]-N-(4-methoxybenzyl)propanamide], the melting point fell in the range of 158 to 160 °C. The molecule also gave an IC50 on CRTH2 (DP2) of 9 nM.

In turn, `CCCCC(=O)N(Cc1ccc(OC)cc1)c1cc(F)cc(-c2nnn[nH]2)c1` [Example 38, N-[3-fluoro-5-(1H-tetrazol-5-yl)phenyl]-N-(4-methoxybenzyl)pentanamide] had a melting point of 122 to 125 °C. At CRTH2 (DP2), this molecule gave an IC50 of 3.6 nM.

As for `C#Cc1cccc(CN(C(=O)CCCC)c2cc(-c3nnn[nH]3)ccc2F)c1` [Example 1, N-(3-ethynylbenzyl)-N-[2-fluoro-5-(1H-tetrazol-5-yl)phenyl]pentanamide], the IC50 was 12 nM on CRTH2 (DP2) and 0.096 µM on CRTH2 [3]. The same molecule had a clearance in series [4] (iv, i.v. 1 mg/Kg) of 1.67 mL/min/kg. The same molecule returned an AUC in series [4] (oral gavage 5 mg/Kg) of 12200 ng·h/mL. The molecule also had a bioavailability in series [4] (po 5 mg/Kg vs iv 1 mg/Kg) of 33%.

Regarding `CCC(=O)N(Cc1ccc(S(C)(=O)=O)cc1)c1cc(F)cc(-c2nnn[nH]2)c1` [Example 78, N-[3-fluoro-5-(1H-tetrazol-5-yl)phenyl]-N-[4-(methylsulfonyl)benzyl]propanamide], the IC50 amounted to 3.5 nM at CRTH2 (DP2) and 0.014 µM at CRTH2 [3]. Also, the EC50 on CRTH2 [3] (agonist activity without PGD2, read-out: EC50(μM) (CDS, partial agonist)) worked out at 0.0011 µM. For the same molecule, the Emax on CRTH2 [3] (agonist activity without PGD2, read-out: EMax (CDS, partial agonist)) was found to be 42%; at CRTH2 [2], 19%.
